Marks after values point to notes of the source that are not given here.
Columns and labels:
[1] = system: western corn rootworm (WCR) adults; details: cited from earlier work
[2] = system: southern corn rootworm (SCR) adults; assay: Sticky trap attraction in sweet corn plots (Example 1); format: in vivo, Diabrotica undecimpunctata howardi; details: for Mean number of SCR per trap (±standard deviation): n = 4
In short: (§1)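 Field trapping in sweet-corn plots beside a Blue Hubbard squash trap crop; lures on mineral-oil-impregnated cotton wicks atop sticky paper-carton traps on 1-m posts, 4 replicates in randomized complete blocks. Beetles counted after 24 h; VIPAE/VIP/TIC mixtures and single components at 1–300 mg per trap, ANOVA/Duncan at P=0.05.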

[3] = system: western corn rootworm (WCR) adults; assay: as above; format: in vivo, Diabrotica virgifera virgifera; details: for Mean number of WCR per trap (±standard deviation): n = 4
In short: as §1

[4] = system: NCR; assay: Limit of response rating of squash blossom volatiles on sticky traps (Example 5); format: in vivo, Diabrotica barberi; details: 24 hour; four replicate traps; 0.01 mg to 200 mg
In short: (§2)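 Adult Diabrotica beetles were tested against cylindrical sticky traps baited with cotton wicks holding 0.01 mg to 200 mg of individual Cucurbita maxima blossom volatiles. Response limit rated by trap catch.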

[5] = system: SCR; assay: as above; format: in vivo, Diabrotica undecimpunctata howardi; details: 24 hour; four replicate traps; 0.01 mg to 200 mg
In short: as §2

[6] = system: WCR; assay: as above; format: in vivo, Diabrotica virgifera virgifera; details: 24 hour; for Attractant Rating WCR (by limit of response): four replicate traps, 0.01 mg to 200 mg; for LR for WCR: sticky traps
In short: as §2

[7] = system: rootworm beetles; assay: Small-plot comparison of insecticides in TEX×PEP dry ground bait; format: in vivo; details: 0.01-0.1% (wt/wt); 1- to 3.3-m2 plots of corn and cucurbits
Experimental: Bait applications to evaluate various insecticides. The relative effectiveness of a variety of insecticides incorporated at 0.01-0.1% (wt/wt) in TEX×PEP dry ground bait was compared. The following insecticides were tested: bendiocarb, carbaryl, carbofuran, methomyl, oxamyl; dimethoate, malathion, isofenphos, phospholan, and mephospholan; and permethrin, cypermethrin, fenvalerate, and flucythrinate. […] The overall greater effectiveness of the carbamates in these small-plot tests is attributed to their rapid kill and lack of repellent effect. The pyrethroids were somewhat repellent to the rootworm beetles.

[8] = system: western corn rootworm (WCR) adults; assay: Sticky trap attraction in corn, estragole analogues (Example 3); format: in vivo, Diabrotica virgifera virgifera; details: 100 mg per trap
In short: (§3)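 Cotton wicks dosed with 100 mg or 100 μL attractant per trap on TangleTrap-coated cartons, four replicates 10 m apart on 1 m posts at field edges of hybrid or sweet corn. Mean beetles caught after ~24 h; log-transformed ANOVA with Duncan's test, P=0.05.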

[9] = system: southern corn rootworm (SCR) adults; assay: Sticky trap attraction in corn, estragole analogues (Example 3); format: in vivo, Diabrotica undecimpunctata howardi; details: September 11; 100 mg per trap; n = 4
In short: as §3

[10] = system: D. barberi; assay: Sticky trap attraction in prairie habitat, Trelease Woods (Example 2); format: in vivo, Diabrotica barberi; details: 100 mg per trap, n = 4
Experimental: (§4) The candidate lures in all experiments were purchased commercially and exceeded 98% purity. The test chemicals were applied by capillary micropipettes to cotton dental wicks which were attached to the tops of 1.0 liter cylindrical paper cartons covered with TangleTrap™ (Tanglefoot Co., Grand Rapids, Mich.). The sticky trap techniques used were as described in Example 1. Cinnamyl alcohol and para-methoxycinnamaldehyde, which are solids, were dissolved in glass-distilled acetone prior to dosing the cotton wicks. […]. Control traps had untreated cotton wicks. Four replicates of treated and untreated traps were randomly positioned 10 meters apart on top of 1 m high posts along the border of a eight foot wide strip cut through the middle of a 4.05 ha relict prairie at Trelease Woods (ca. two miles northeast of Urbana, Ill.). The field consisted primarily of Andropogon gerardii Vitman (big bluestem) and a variety of composites. The tests were conducted in mid-August of two years and were timed to coincide with the presence of D. cristata and D. barberi adults in the flower heads of Canada thistle (Carduus arvensis Robson). In the second year, several new attractants of D. v. virgifera and D. barberi were tested in Trelease Woods and along the edge of a 0.8 ha field of hybrid corn located at the Pomology South Farms, Urbana, Ill. Attraction of Diabrotica species to the various lures was measured by the mean number of beetles caught after 24-h. On one date in late August of the first year, D. cristata and D. barberi were removed from the traps and sexed in the laboratory. The significance of treatments in all tests was determined by an analysis of variance and the individual means were separated by Duncan's multiple range test (Statistical Package for Social Science, Nie, et al., SPSS: statistical package for the social sciences, 2nd ed. McGraw-Hill, New York (1975). Data were logarithmically transformed for statistical analysis and the means and standard deviations are presented for the untransformed data.

[11] = system: D. cristata; assay: as above; format: in vivo, Diabrotica cristata; details: 100 mg per trap, n = 4
Experimental: as §4

[12] = system: D. v. virgifera; assay: as above; format: in vivo, Diabrotica virgifera virgifera; details: 100 mg per trap, n = 4
Experimental: as §4

[13] = system: D. u. howardi; assay: as above; format: in vivo, Diabrotica undecimpunctata howardi; details: 100 mg per trap, n = 4
Experimental: as §4

[14] = system: D. barberi; assay: Sticky trap attraction along hybrid corn, Pomology South Farms (Example 2); format: in vivo, Diabrotica barberi; details: 100 mg per trap, n = 4
Experimental: (§5) The candidate lures in all experiments were purchased commercially and exceeded 98% purity. The test chemicals were applied by capillary micropipettes to cotton dental wicks which were attached to the tops of 1.0 liter cylindrical paper cartons covered with TangleTrap™ (Tanglefoot Co., Grand Rapids, Mich.). The sticky trap techniques used were as described in Example 1. Cinnamyl alcohol and para-methoxycinnamaldehyde, which are solids, were dissolved in glass-distilled acetone prior to dosing the cotton wicks. All treatments were applied at a dosage of 100 mg per trap. 1,2,4-trimethoxybenzene, indole, and trans-cinnamaldehyde were mixed in a ratio of 1:1:1, by weight, immediately prior to dosing the cotton wicks. Control traps had untreated cotton wicks. Four replicates of treated and untreated traps were randomly positioned 10 meters apart on top of 1 m high posts along the border of a eight foot wide strip cut through the middle of a 4.05 ha relict prairie at Trelease Woods (ca. two miles northeast of Urbana, Ill.). The field consisted primarily of Andropogon gerardii Vitman (big bluestem) and a variety of composites. The tests were conducted in mid-August of two years and were timed to coincide with the presence of D. cristata and D. barberi adults in the flower heads of Canada thistle (Carduus arvensis Robson). In the second year, several new attractants of D. v. virgifera and D. barberi were tested in Trelease Woods and along the edge of a 0.8 ha field of hybrid corn located at the Pomology South Farms, Urbana, Ill. Attraction of Diabrotica species to the various lures was measured by the mean number of beetles caught after 24-h. On one date in late August of the first year, D. cristata and D. barberi were removed from the traps and sexed in the laboratory. The significance of treatments in all tests was determined by an analysis of variance and the individual means were separated by Duncan's multiple range test (Statistical Package for Social Science, Nie, et al., SPSS: statistical package for the social sciences, 2nd ed. McGraw-Hill, New York (1975). Data were logarithmically transformed for statistical analysis and the means and standard deviations are presented for the untransformed data.

[15] = system: D. v. virgifera; assay: as above; format: in vivo, Diabrotica virgifera virgifera; details: 100 mg per trap, n = 4
Experimental: as §5

[16] = system: D. u. howardi; assay: as above; format: in vivo, Diabrotica undecimpunctata howardi; details: 100 mg per trap, n = 4
Experimental: as §5

[17] = August 4, second year, each compound 20 mg per trap
[18] = August 7, second year, each compound 20 mg per trap
[19] = August first year, South Farms, 24 h, single compounds 100 mg per trap, mixture 20 mg of each component
[20] = August first year, single compounds 100 mg per trap, mixture 20 mg each component

In the case of CCC(=O)OC(C)CCCCCC(C)CC (stereo not shown) [8-methyl-2-decylpropanoate], the “amount per sticky trap that attracted male WCR” value ([1]; per sticky trap) is listed as 5 µg.
For c1ccc2[nH]ccc2c1 [Indole], the “relative percent activity (SCR) as compared with the highest mean value for the test date” value [2, 17] was 4%, the “Mean number of SCR per trap (±standard deviation)” value [2, 17] was 1.5 ± 1.0 per trap and the “relative percent activity (SCR) as compared with the highest mean value for the test date” value [2, 18] was 6%. For the same compound, the “Mean number of SCR per trap (±standard deviation)” value [2, 18] was 2.8 ± 1.3 per trap, the “Mean number of SCR per trap (±standard deviation)” value [2, 19] was 2.3 ± 2.1 per trap and the “relative percent activity of the mean SCR trap catch as compared with the highest mean value in the column” value [2, 20] was 11%. The “relative percent activity (WCR) as compared with the highest mean value for the test date” value [3, 17] was 100%, the “Mean number of WCR per trap (±standard deviation)” value [3, 17] was 51.3 ± 24.4 per trap and the “relative percent activity (WCR) as compared with the highest mean value for the test date” value [3, 18] was 87%. For the same compound, the “Mean number of WCR per trap (±standard deviation)” value [3, 18] was 27.5 ± 11.8 per trap, the “Mean number of WCR per trap (±standard deviation)” value [3, 19] was 3.3 ± 2.1 per trap and the “relative percent activity of the mean WCR trap catch as compared with the highest mean value in the column” value [3, 20] was 49%. The “Attractant Rating NCR (by limit of response)” value [4] was 0 (200), the “Attractant Rating SCR (by limit of response)” value [5] was 0 (200) and the “Attractant Rating WCR (by limit of response)” value [6] was “+4 (1-3)”. The “LR for WCR” value [6] was 1 mg and the “LR values for WCR attraction (literature)” value ([1]; in vivo) was 1 mg.
For CCOP(=S)(NC(C)C)Oc1ccccc1C(=O)OC(C)C (stereo not shown) [Isofenphos, isofenphos], the “relative effectiveness of insecticides in TEX×PEP dry ground bait” value (“relative effectiveness of insecticides” for short) [7] was “most effective of the organophosphorus insecticides”.
With CCOc1ccc(OC)cc1 [VI, 4-methoxyphenyl ethyl ether] the “Relative percent activity as compared with the highest mean in the column (WCR)” value ([8]; August 29) was 8%, the “Mean number of WCR per sticky trap (±standard deviation) after 24 hours” value ([8]; August 29, n = 4) was 12.0 ± 1.8 per sticky trap and the “Relative percent activity as compared with the highest mean in the column (WCR)” value ([8]; July 30) was 39%. The “Mean number of WCR per sticky trap (±standard deviation) after 24 hours” value ([8]; July 30, n = 4) was 32.0 ± 8.4 per sticky trap and the melting point was 34 to 35 °C.
In the case of COC(=O)C=Cc1ccc(OC)cc1 [XIV, 4-methoxycinnamic acid methyl ester], the “Mean number of WCR adults per sticky trap (±standard deviation) after 24 hours” value ([8]; September 11, n = 4) is reported as 1.0 ± 1.1^a per sticky trap, the “Mean number of SCR adults per sticky trap (±standard deviation) after 24 hours” value [9] is reported as 0.7 ± 1.5^a per sticky trap and the melting point is reported as 87 to 89 °C.
In the case of CNC(=O)Oc1cccc2c1OC(C)(C)O2 [bendicarb, bendiocarb], the “relative effectiveness of insecticides” value [7] is reported as “more effective than the pyrethroids”.
With CNC(=O)Oc1cccc2ccccc12 [carbaryl] the “relative effectiveness of insecticides” value [7] was “more effective than the pyrethroids”.
For CNC(=O)Oc1cccc2c1OC(C)(C)C2 [carbofuran], the “relative effectiveness of insecticides” value [7] was “more effective than the pyrethroids”.
For CNC(=O)ON=C(C)SC [methomyl], the “relative effectiveness of insecticides” value [7] was “more effective than the pyrethroids”.
For CC(=O)/C=C/C1=C(C)CCCC1(C)C [β-ionone], the “Mean number of D. barberi per day (±standard deviation)” value ([10]; August 11, 1987) was 0.3 ± 0.5^ab per day, the “Mean number of D. barberi per day (±standard deviation)” value ([10]; August 14, 1987) was 0.3 ± 0.5^a per day and the “Mean number of D. cristata per day (±standard deviation)” value ([11]; August 11, 1987) was 17.3 ± 8.7^b per day. The “Mean number of D. cristata per day (±standard deviation)” value ([11]; August 14, 1987) was 5.3 ± 2.2^b per day, the “Mean number of D. v. virgifera per day (±standard deviation)” value ([12]; August 11, 1987) was 4.0 ± 0.8^b per day and the “Mean number of D. v. virgifera per day (±standard deviation)” value ([12]; August 14, 1987) was 2.3 ± 1.3^b per day. For the same compound, the “Mean number of D. u. howardi per day (±standard deviation)” value ([13]; August 11, 1987) was 0.3 ± 0.5^a per day, the “Mean number of D. u. howardi per day (±standard deviation)” value ([13]; August 14, 1987) was 0.0^a per day and the “Mean number of D. barberi per stick trap per day (±standard deviation) in corn” value ([14]; August 7) was 0.5 ± 0.7^a per stick trap per day. For the same compound, the “Mean number of D. barberi per stick trap per day (±standard deviation) in corn” value ([14]; August 18) was 1.5 ± 1.0^a per stick trap per day, the “Mean number of D. v. virgifera per stick trap per day (±standard deviation) in corn” value ([15]; August 7) was 263.5 ± 94.6^cd per stick trap per day and the “Mean number of D. v. virgifera per stick trap per day (±standard deviation) in corn” value ([15]; August 18) was 89.0 ± 18.2^b per stick trap per day. The “Mean number of D. u. howardi per stick trap per day (±standard deviation) in corn” value ([16]; August 7) was 1.8 ± 2.4^a per stick trap per day, the “Mean number of D. u. howardi per stick trap per day (±standard deviation) in corn” value ([16]; August 18) was 0.5 ± 0.7^a per stick trap per day and the “Attractant Rating NCR (by limit of response)” value [4] was 0 (200). For the same compound, the “Attractant Rating SCR (by limit of response)” value [5] was 0 (200), the “Attractant Rating WCR (by limit of response)” value [6] was “+4 (1-3)” and the “LR for WCR” value [6] was 3 mg.
